# Results as given in the NIST ThermoML archive (doi:10.1016/j.jct.2016.04.023).
# Numbers after ± are expanded uncertainties.
# Assay: Boiling temperature at pressure P
# Conditions: Liquid, DSC
SMILES,Boiling temperature at pressure P (3.47 kPa) [°C],other results
"CCCC(=O)OCC(COC(=O)CCC)OC(=O)CCC [1,2,3-propanetriyl tributanoate]",201.40 ± 1.9,
CCCCCCCCCCCCCCCCCCO [1-octadecanol],225.89 ± 1.8,
"CCCCCCCC(=O)OCC(O)CO (stereo unspecified) [2,3-dihydroxypropyl octanoate]",211.90 ± 1.9,
OCC(O)CO [glycerol],186.13 ± 1.7,
CCCCCCCCCCCCCCCC [hexadecane],170.91 ± 2.5,Boiling temperature at pressure P (10.37 kPa): 200.90 ± 1.7 °C; Boiling temperature at pressure P (15.17 kPa): 213.66 ± 1.6 °C; Boiling temperature at pressure P (18.66 kPa): 220.5 ± 2.6 °C; Boiling temperature at pressure P (22.39 kPa): 223.27 ± 2.3 °C
CCCCCCCCCCCCCCCCCC [octadecane],196.81 ± 1.9,
CCCCCCCC(=O)O [octanoic acid],144.04 ± 1.9,
